Test results: US6737383B1, “Herbicidal oxadiazolidines” (priority 1999, dated 2004)

How the values were obtained:
bedstraw = test: Test B pre/postemergence bedstraw; format: in vivo, Galium aparine; details: Postemergence
Summary of the method: (§1)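 Test chemicals in a non-phytotoxic solvent mixture with surfactant were sprayed preemergence onto planted seeds and postemergence onto plants 2 to 18 cm tall (1- to 4-leaf stage). After twelve to sixteen days in a greenhouse, injury was visually rated against untreated controls from 0 (no effect) to 10 (complete control).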

blackgrass = test: Test B pre/postemergence blackgrass; format: in vivo, Alopecurus myosuroides
Summary of the method: as §1

surinam grass = test: Test B pre/postemergence surinam grass; format: in vivo, Brachiaria decumbens
Summary of the method: as §1

cocklebur = test: Test B pre/postemergence cocklebur; format: in vivo, Xanthium strumarium
Summary of the method: as §1

corn = test: Test B pre/postemergence corn; format: in vivo, Zea mays
Summary of the method: as §1

crabgrass = test: Test B pre/postemergence crabgrass; format: in vivo, Digitaria sanguinalis
Summary of the method: as §1

giant foxtail = test: Test B pre/postemergence giant foxtail; format: in vivo, Setaria faberii
Summary of the method: as §1

morningglory = test: Test B pre/postemergence morningglory; format: in vivo, Ipomoea hederacea
Summary of the method: as §1

pigweed = test: Test B pre/postemergence pigweed; format: in vivo, Amaranthus retroflexus
Summary of the method: as §1

rape = test: Test B pre/postemergence rape; format: in vivo, Brassica napus
Summary of the method: as §1

soybean = test: Test B pre/postemergence soybean; format: in vivo, Glycine max
Summary of the method: as §1

sugar beet = test: Test B pre/postemergence sugar beet; format: in vivo, Beta vulgaris
Summary of the method: as §1

velvetleaf = test: Test B pre/postemergence velvetleaf; format: in vivo, Abutilon theophrasti
Summary of the method: as §1

wheat = test: Test B pre/postemergence wheat; format: in vivo, Triticum aestivum
Summary of the method: as §1

wild oat = test: Test B pre/postemergence wild oat; format: in vivo, Avena fatua
Summary of the method: as §1

purple nutsedge = test: Test B pre/postemergence purple nutsedge; format: in vivo, Cyperus rotundus
Summary of the method: as §1

rice = test: Test B flood test rice; format: in vivo, Oryza sativa
Summary of the method: (§2)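 Plants were grown to the 2-leaf stage before treatment with test chemical, then held in a greenhouse for twelve to sixteen days. Injury was visually rated against untreated controls on a 0–10 scale, where 0 is no effect and 10 is complete control.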

smallflower flatsedge = test: Test B flood test smallflower flatsedge; format: in vivo, Cyperus difformis
Summary of the method: as §2

duck salad = test: Test B flood test duck salad; format: in vivo, Heteranthera limosa
Summary of the method: as §2

bamyardgrass = test: Test B flood test barnyardgrass; format: in vivo, Echinochloa crus-galli
Summary of the method: as §2

[1] = Postemergence, Rate 125 g/ha, scale 0 to 10, 0 is no effect, 10 is complete control
[2] = Postemergence, Rate 250 g/ha, scale 0 to 10
[3] = Postemergence, Rate 500 g/ha, scale 0 to 10, 0 is no effect, 10 is complete control
[4] = Preemergence, Rate 62 g/ha, scale of 0 to 10 where 0 is no effect and 10 is complete control
[5] = Preemergence, Rate 125 g/ha, scale 0 to 10, 0 is no effect, 10 is complete control
[6] = Preemergence, Rate 250 g/ha, scale 0 to 10, 0 is no effect, 10 is complete control
[7] = Preemergence, Rate 500 g/ha, scale 0 to 10, 0 is no effect, 10 is complete control
[8] = Rate 62 g/ha, Postemergence, scale 0 to 10, 0 no effect, 10 complete control
[9] = Rate 62 g/ha, flood test species, Pre-emergence, visual evaluation after twelve to sixteen days
[10] = Rate 125 g/ha, under heading Pre-emergence, flood test species, visual evaluation after twelve to sixteen days
[11] = Rate 250 g/ha, Pre-emergence (flood test species), scale 0 to 10, 0 is no effect, 10 is complete control
[12] = Rate 500 g/ha, Pre-emergence section of Table B, 0 to 10 scale (0 no effect, 10 complete control)

CC(C)N(C(=O)n1oc(=O)n(CC(=O)C2CC2)c1=O)c1ccc(F)cc1 [Compound 488]
Bedstraw plant response rating (bedstraw; Rate 125 g/ha, scale 0 to 10, 0 is no effect, 10 is complete control): 2 | Bedstraw plant response rating (bedstraw; Rate 250 g/ha, scale 0 to 10): 4 | Plant response rating, Bedstraw (bedstraw; Rate 500 g/ha, scale 0 to 10, 0 is no effect, 10 is complete control): 9 | Bedstraw plant response rating (bedstraw; Rate 62 g/ha, scale 0 to 10, 0 no effect, 10 complete control): 0 | Blackgrass plant response rating (blackgrass; [1]): 8 | Blackgrass plant response rating (blackgrass; [2]): 8 | Plant response rating, Blackgrass (blackgrass; [3]): 8 | Plant response rating, Blackgrass (blackgrass; [4]): 5 | Blackgrass plant response rating (blackgrass; [5]): 8 | Blackgrass plant response rating (blackgrass; [6]): 8 | Blackgrass plant response rating (blackgrass; [7]): 10 | Blackgrass plant response rating (blackgrass; [8]): 1 | B. signalgrass plant response rating (surinam grass; [1]): 4 | B. signalgrass plant response rating (surinam grass; Postemergence, Rate 250 g/ha, scale 0 to 10, 0 no effect, 10 complete control): 6 | Plant response rating, B. signalgrass (surinam grass; [3]): 7 | Plant response rating, B. signalgrass (surinam grass; [4]): 4 | B. signalgrass plant response rating (surinam grass; [5]): 7 | B. signalgrass plant response rating (surinam grass; [6]): 7 | B. signalgrass plant response rating (surinam grass; [7]): 10 | B. signalgrass plant response rating (surinam grass; [8]): 0 | Cocklebur plant response rating (cocklebur; [1]): 0 | Cocklebur plant response rating (cocklebur; [2]): 0 | Plant response rating, Cocklebur (cocklebur; [3]): 0 | Plant response rating, Cocklebur (cocklebur; [4]): 0 | Cocklebur plant response rating (cocklebur; [5]): 0 | Cocklebur plant response rating (cocklebur; [6]): 0 | Cocklebur plant response rating (cocklebur; [7]): 0 | Cocklebur plant response rating (cocklebur; [8]): 0 | Corn plant response rating (corn; [1]): 0 | Corn plant response rating (corn; [2]): 0 | Plant response rating, Corn (corn; [3]): 0 | Plant response rating, Corn (corn; [4]): 0 | Corn plant response rating (corn; [5]): 0 | Corn plant response rating (corn; [7]): 6 | Corn plant response rating (corn; [8]): 0 | Crabgrass plant response rating (crabgrass; [1]): 7 | Crabgrass plant response rating (crabgrass; [2]): 8 | Plant response rating, Crabgrass (crabgrass; [3]): 9 | Plant response rating, Crabgrass (crabgrass; [4]): 8 | Crabgrass plant response rating (crabgrass; [5]): 10 | Crabgrass plant response rating (crabgrass; [7]): 10 | Giant foxtail plant response rating (giant foxtail; [1]): 8 | Plant response rating, Giant foxtail (giant foxtail; [3]): 9 | Plant response rating, Giant foxtail (giant foxtail; [4]): 9 | Giant foxtail plant response rating (giant foxtail; [5]): 10 | Giant foxtail plant response rating (giant foxtail; [7]): 10 | Giant foxtail plant response rating (giant foxtail; [8]): 5 | Morningglory plant response rating (morningglory; [1]): 2 | Plant response rating, Morningglory (morningglory; [3]): 8 | Plant response rating, Morningglory (morningglory; [4]): 0 | Morningglory plant response rating (morningglory; [5]): 0 | Morningglory plant response rating (morningglory; [7]): 0 | Morningglory plant response rating (morningglory; [8]): 1 | Redroot pigweed plant response rating (pigweed; [1]): 0 | Plant response rating, Redroot pigweed (pigweed; [3]): 2 | Plant response rating, Redroot pigweed (pigweed; [4]): 4 | Redroot pigweed plant response rating (pigweed; [5]): 10 | Redroot pigweed plant response rating (pigweed; [7]): 10 | Redroot pigweed plant response rating (pigweed; [8]): 0 | Rape plant response rating (rape; [1]): 0 | Plant response rating, Rape (rape; [3]): 0 | Plant response rating, Rape (rape; [4]): 1 | Rape plant response rating (rape; [5]): 7 | Rape plant response rating (rape; [7]): 10 | Rape plant response rating (rape; [8]): 0 | Soybean plant response rating (soybean; [1]): 4 | Plant response rating, Soybean (soybean; [3]): 5 | Plant response rating, Soybean (soybean; [4]): 0 | Soybean plant response rating (soybean; [5]): 0 | Soybean plant response rating (soybean; [7]): 1 | Soybean plant response rating (soybean; [8]): 4 | Sugarbeets plant response rating (sugar beet; [1]): 0 | Plant response rating, Sugarbeets (sugar beet; [3]): 1 | Plant response rating, Sugarbeets (sugar beet; [4]): 0 | Sugarbeets plant response rating (sugar beet; [5]): 4 | Sugarbeets plant response rating (sugar beet; [7]): 7 | Sugarbeets plant response rating (sugar beet; [8]): 0 | Velvetleaf plant response rating (velvetleaf; [1]): 0 | Plant response rating, Velvetleaf (velvetleaf; [3]): 1 | Plant response rating, Velvetleaf (velvetleaf; [4]): 0 | Velvetleaf plant response rating (velvetleaf; [5]): 2 | Velvetleaf plant response rating (velvetleaf; [7]): 6 | Velvetleaf plant response rating (velvetleaf; [8]): 0 | Wheat plant response rating (wheat; [1]): 0 | Plant response rating, Wheat (wheat; [3]): 3 | Plant response rating, Wheat (wheat; [4]): 0 | Wheat plant response rating (wheat; [5]): 0 | Wheat plant response rating (wheat; [7]): 5 | Wheat plant response rating (wheat; [8]): 0 | Wild oats plant response rating (wild oat; [1]): 0 | Plant response rating, Wild oats (wild oat; [3]): 5 | Plant response rating, Wild oats (wild oat; [4]): 3 | Wild oats plant response rating (wild oat; [5]): 8 | Wild oats plant response rating (wild oat; [7]): 10 | Wild oats plant response rating (wild oat; [8]): 0 | Nutsedge plant response rating (purple nutsedge; [1]): 0 | Plant response rating, Nutsedge (purple nutsedge; [3]): 2 | Plant response rating, Nutsedge (purple nutsedge; [4]): 0 | Nutsedge plant response rating (purple nutsedge; [5]): 0 | Nutsedge plant response rating (purple nutsedge; [7]): 0 | Nutsedge plant response rating (purple nutsedge; [8]): 0 | Plant response rating, Rice (0 to 10 scale, 0 is no effect, 10 is complete control) (rice; [9]): 0 | Rice plant response rating (0 to 10 scale, 0 is no effect, 10 is complete control) (rice; [10]): 0 | Rice plant response rating (rice; [11]): 0 | Rice plant response rating (rice; [12]): 0 | Plant response rating, S. Flatsedge (0 to 10 scale, 0 is no effect, 10 is complete control) (smallflower flatsedge; [9]): 0 | S. Flatsedge plant response rating (0 to 10 scale, 0 is no effect, 10 is complete control) (smallflower flatsedge; [10]): 0 | S. Flatsedge plant response rating (smallflower flatsedge; [11]): 0 | S. Flatsedge plant response rating (smallflower flatsedge; [12]): 0 | Plant response rating, Ducksalad (0 to 10 scale, 0 is no effect, 10 is complete control) (duck salad; [9]): 0 | Ducksalad plant response rating (0 to 10 scale, 0 is no effect, 10 is complete control) (duck salad; [10]): 0 | Ducksalad plant response rating (duck salad; [11]): 0 | Ducksalad plant response rating (duck salad; [12]): 0 | Plant response rating, Barnyardgrass (0 to 10 scale, 0 is no effect, 10 is complete control) (bamyardgrass; [9]): 0 | Barnyardgrass plant response rating (0 to 10 scale, 0 is no effect, 10 is complete control) (bamyardgrass; [10]): 0 | Barnyardgrass plant response rating (bamyardgrass; [11]): 0 | Barnyardgrass plant response rating (bamyardgrass; [12]): 0
